Experimental data from patent publication US7855189B2, “N-phenylphosphoric acid triamides, method for the production thereof and their use as agents for regulating or inhibiting enzymatic urea hydrolysis” (SKW Stickstoffwerke Piesteritz GmbH, priority 2004, dated 2010).
Marks after values point to notes of the source that are not given here.

Test system: urease
Assay: Testing for urease-inhibiting effect in soil (NH3-N release from urea)
Assay type: biochemical
Settings: 30 g soil at 40% of max water capacity, 50 mg urea
Description: 30 g soil set to 40% of the maximum water capacity are added with 1 ml urea solution corresponding to 50 mg urea. At the same time the active substance is applied, preferably dissolved in the urea solution. The concentration details for the individual tested active substances given in the following table relate to the quantity of carbamide nitrogen used in the test. The soil, on the surface of which the urea solution (with and without the active substance) is applied is located in an airtight sealed container into which a receiver is inserted at the same time which collects the ammonia released from the urea as ammonium. By rinsing the receiver daily and analysing the NH4—N quantities contained, the NH3—N-release from the urea is determined.
From the summation of the ammonium quantities in the receiver, the percentage inhibition of the urea hydrolysis dependently upon time is calculated and from these values the t50 value is determined mathematically.
The t50 value is understood to be the time in days since the start of the test at which the urea hydrolysis inhibition is still 50%.

Compound: NP(N)(=O)Nc1ccccc1[N+](=O)[O-] [Compound 1, N-(2-nitrophenyl)phosphoric acid triamide]
- urease inhibition t50 value (time in days at which the urea hydrolysis inhibition is still 50%) (conc. 0.05 % HS-N-related (in relation to urea nitrogen used)): >25^b) d

Compound: Cc1cccc(NP(N)(N)=O)c1 [Compound 2, N-(3-methylphenyl)phosphoric acid triamide]
- urease inhibition t50 value (time in days at which the urea hydrolysis inhibition is still 50%) (conc. 0.5 % HS-N-related (in relation to urea nitrogen used)): 11.2 days
